# Test results taken from paper PMC12202533, “Mechanistic Insights and Anti-cancer Activity of 2H-benzo[b][1,4]oxazin-3(4H)-one Linked 1,2,3-Triazoles in Human Cancer Cells” (Frontiers in Pharmacology, 2025).
# Where two headings read alike, the source gives them in different places.
# How the values were obtained:
# A549 cells [1] = experiment: Annexin V-FITC/PI apoptosis quantification by flow cytometry; format: cell-based, human; conditions: 48 h
# Description: We used these two compounds to clarify this function and explore the underlying mechanism. To investigate whether the new compound could induce cell apoptosis, A549 cells were exposed to different concentrations of 14b and 14c for 48 h. The cells were then stained with Annexin V-FITC and propidium iodide (PI). The Annexin V-FITC/PI staining was performed to quantify the percentage of apoptotic cells by flow cytometry.
# A549 cells were exposed to different concentrations of 14b and 14c (5 μM, 10 μM, and 20 μM) for 48 h. Cells were collected and stained with Annexin V-FITC and PI, and apoptotic cells were measured by flow cytometry. Data are presented as mean ± SEM, *P < 0.05.
# A549 cells were plated at a density of 3 × 10^5 cells per well in a six-well plate. Compounds at concentrations of 0, 5, 10, or 20 μM were added to the cells for 48 h. Cells were then collected, washed with PBS, and stained with Annexin V-FITC and propidium iodide for 20 min. Apoptotic cells were quantified using a flow cytometer, and the data were further analyzed using FlowJo software.
# A549 cells [2] = experiment: Calcein AM/PI live/dead viability assay; format: cell-based, human; conditions: 24 h
# Description: (§1) To investigate the role of 14b and 14c in regulating cell proliferation and death, A549 cells were treated with different concentrations of compounds for 24 h, and the live/dead cell numbers were then observed by staining with calcein AM and propidium iodide.
# (§2) FIGURE 4 Compound 14b and 14c increased dead cells and decreased live cells. (A–B) A549 cells were treated with different concentrations of 14b and 14c (5 μM, 10 μM, and 20 μM) for 24 h (C–D) BEAS-2B cells were treated with different concentrations of 14b and 14c (5 μM, 10 μM, and 20 μM) for 24 h. Live and dead cell numbers were stained with calcein in AM and PI, respectively, and cells were observed by confocal microscopy. Data are presented as mean ± SEM, *P < 0.05.
# (§3) The live/dead viability assay was performed using the Calcein/PI Live/Dead Viability Assay Kit. A549 cells were plated at a density of 5 × 10^3 cells per well in a 96-well plate and allowed to adhere overnight. Compounds were then added at concentrations of 0, 5, 10, or 20 μM for 24 h. After replacing the medium with fresh culture medium containing Calcein AM and propidium iodide, the cells were incubated for 30 min at 37°C in the dark. Live and dead cells were observed and photographed using a confocal microscope.
# [3] = CCK-8 cell viability assay, normal cell line; format: cell-based; conditions: human, BEAS-2B cells (normal cell line), BEAS-2B normal cell line, read-out: Cell viability (100%), 40 μM, 48 h, BEAS-2B
# Description: (§4) In order to investigate the anticancer activity of new synthetic 1,4-benzoxazinone-linked 1,2,3-triazole compounds, we chose several cancer cell lines, including A549 (lung), Huh7 (liver), MCF-7 (breast), HCT-116 (colon), and SKOV3 (ovary), and measured cell viability using the CCK-8 assay. Cells were exposed to 40 μM of the compounds for 48 h, and then cell viability was determined. […] In addition, we used the reference drug gefitinib as a positive control and measured its cell viability on different cell lines. […] We used BEAS-2B cells as a normal cell line to determine the toxic effects of these compounds on normal cells. […] Furthermore, we evaluated the IC50 of these compounds in A549.
# (§5) Cells were cultured in DMEM or RPMI 1640 medium containing 10% FBS and 1% penicillin/streptomycin at 37°C and 5% CO2. The CCK-8 assay was performed on several human cancer cell lines, including A549, Huh7, MCF-7, HCT-116, and SKOV3, according to the manufacturer’s instructions. Cells were plated at a density of 5 × 10^3 cells per well in a 96-well plate. After 24 h of incubation, cells were treated with 40 μM compounds for 48 h. Cell viability was assessed by adding 10 μL of CCK-8 reagent, dissolved in the cell culture medium, and incubating for 1 h. Absorbance was measured at 450 nm using a microplate reader. IC50 values were determined using a dose-response curve with six concentrations (0, 10, 20, 40, 80, and 160 μM), and IC50 values were calculated using GraphPad Prism software.
# BEAS-2B cells = experiment: Calcein AM/PI live/dead viability assay, normal lung cells; format: cell-based; conditions: BEAS-2B, 5, 10, 20 μM, 24 h
# Description: as §1, §2, §3
# A549 cells [4] = experiment: RT-PCR gene expression; format: cell-based, human; conditions: A549, 10 μM, 48 h
# Description: To investigate the molecular mechanisms underlying the anti-tumor activity of 2H-1,4-benzoxazin-3(4H)-one-linked 1,2,3-triazole derivatives, we examined the expression of key genes involved in cell growth and death, including those related to DNA damage, oxidative stress, apoptosis, and autophagy (Figure 5). Gene expression was assessed in A549 cells treated with 14b or 14c (10 μM) for 48 h. […] The regulation of gene expression is a complex process regulated by many signaling pathways, and these signaling pathways interact with each other, all of which lead to a change in gene expression, not all in the same direction. Although the DNA damage gene p21 was decreased, another key gene, H2AX, was increased, which may stimulate DNA damage. These findings in A549 cells align with the results observed following 14b and 14c treatments.
# FIGURE 5 Compounds 14b and 14c increased the gene expression. A549 cells were treated with 14b (A) and 14c (B) (10 μM) for 48 h. Gene expressions were detected by RT-PCR. Data are presented as mean ± SEM, *P < 0.05.
# A549 cells were seeded in 12-well plates and treated with compounds for 48 h. Total RNA was extracted using TRIzol reagent, and RT-PCR was performed using PowerUp™ SYBR™ Green Master Mix. Gene expression was normalized to GAPDH. The results are expressed as mean ± SEM, and statistical significance was assessed using a two-tailed Student’s t-test (P < 0.05).
# A549 = experiment: CCK-8 cell viability assay and IC50 measurement; format: cell-based, human; conditions: Homo sapiens; for viability at 40 µM / inhibition at 40 µM: A549, 40 μM, 48 h; for viability at 40 µM: CCK-8, read-out: Cell viability (100%), 40 μM, 48 h, A549; for inhibition at 40 µM: read-out: inhibition rate
# Description: as §4
# Human cancer cell lines A549, Huh7, MCF-7, HCT-116, and SKOV3 were obtained from ATCC. The cells were cultured in DMEM or RPMI 1640 medium supplemented with 10% FBS and 1% penicillin/streptomycin and incubated at 37°C in a CO2-humidified atmosphere.
# as §5
# [5] = A549, 48 h, read-out: IC50 48 h
# [6] = A549, 72 h, read-out: IC50 72 h
smiles,measurement,setting,value
O=C1COc2ccc(NC(=O)c3cccc(-c4cn(-c5cccc(Br)c5)nn4)c3)cc2N1 [Compound 14b],percentage of early and late apoptotic cells,"A549 cells [1]; A549, 5 μM",13.92%
same,percentage of early and late apoptotic cells,"A549 cells [1]; A549, 10 μM",25.85%
same,percentage of early and late apoptotic cells,"A549 cells [1]; A549, 20 μM",49.04%
same,Dead cells,"A549 cells [2]; A549, 5 μM",increased
same,Dead cells,"A549 cells [2]; A549, 10 μM and 20 μM",greatly and largely increased
same,Live cells,"A549 cells [2]; A549, different concentrations (5, 10, 20 μM)",consistently decreased
same,"viability at 48 h, 40 µM",[3],93.2 ± 0.61%
same,cytotoxicity in normal lung cells,BEAS-2B cells,minimal cytotoxicity
same,ATG7 gene expression,A549 cells [4],increased expression
same,Nrf2 gene expression,A549 cells [4],increased expression
same,p53 gene expression,A549 cells [4],increased expression
same,IC50,A549; [5],25.1 ± 4.62 µM
same,IC50,A549; [6],7.59 ± 0.31 µM
same,viability at 40 µM,A549,27 ± 0.98%
same,inhibition at 40 µM,A549,> 50%
O=C1COc2ccc(NC(=O)c3cccc(-c4cn(-c5ccccc5F)nn4)c3)cc2N1 [Compound 14c],percentage of early and late apoptotic cells,"A549 cells [1]; A549, 5 μM",12.57%
same,percentage of early and late apoptotic cells,"A549 cells [1]; A549, 10 μM",27.21%
same,percentage of early and late apoptotic cells,"A549 cells [1]; A549, 20 μM",72.02%
same,live/dead cell numbers compared with compound 14b,"A549 cells [2]; A549, 5, 10, 20 μM",The same results were also observed
same,"viability at 48 h, 40 µM",[3],105 ± 2.38%
same,cytotoxicity in normal lung cells,BEAS-2B cells,minimal cytotoxicity
same,ATG7 gene expression,A549 cells [4],upregulated
same,Gpx4 gene expression,A549 cells [4],upregulated
same,H2AX gene expression,A549 cells [4],upregulated
same,apoptosis-related genes expression,A549 cells [4],either downregulated or unchanged
same,IC50,A549; [5],24.1 ± 3.83 µM
same,IC50,A549; [6],18.5 ± 0.59 µM
same,viability at 40 µM,A549,22.6 ± 0.88%
same,inhibition at 40 µM,A549,> 50%
